Measured values taken from patent US10059667B2, “Antidiabetic compounds” (MERCK SHARP & DOHME CORP., priority 2014, dated 2018).

The compounds below were run against Human GPR40 (Homo sapiens (Human), UniProt O14842) (assay: Inositol Phosphate Turnover (IP1) Assay 1, HEK cells stably expressing human GPR40, 3H-inositol SPA). Details: HEK cells stably expressing human GPR40, 96-well.
Type: cell-based
Experimental: Human and mouse GPR40 stable cell-lines were generated in CHO cells stably expressing NFAT BLA (Beta-lactamase). A human GPR40 stable cell-line was generated in HEK cells stably expressing the aequorin expressing reporter. The expression plasmids were transfected using lipofectamine (Life Technologies) following manufacturer's instructions. Stable cell-lines were generated following drug selection.
The assay was performed in 96-well format. HEK cells stably expressing human GPR40 were plated to be 60-80% confluent within 72 h. After 72 h, the plates were aspirated and the cells washed with inositol-free DMEM (ICN). The wash media was replaced with 150 μL of 3H-inositol labeling media (inositol-free media containing 0.4% human albumin or 0.4% mouse albumin, 1× pen/strep antibiotics, glutamine, 25 mM HEPES to which was added 3H-myo-inositol NEN #NET114A 1 mCi/mL, 25 Ci/mmol diluted 1:150 in loading media with a final specific radioactivity of 1 μCi/150 μL). Alternatively, the human and mouse albumin can be added after the overnight labeling step before the addition of LiCl.
The assay was typically run the next day after 18 h labeling. On the day of the assay, 5 μL of 300 mM LiCl was added to all wells and incubated at 37 degrees for 20 min. 0.75 μL of each compound was added and incubated with the cells for 60 min at 37 degrees. The media was then aspirated off and the assay terminated with the addition of 60 μL 10 mM formic acid. The cells were lysed for 60 min at room temperature. 15-30 μL of lysate was mixed with 70 μL/1 mg YSi SPA beads (Amersham) in clear bottom Isoplates. The plates were shaken for 2 h at room temperature. Beads were allowed to settle and the plates were counted in the Wallac Microbeta.

Chain of Human GPR40 (O14842 whole entry): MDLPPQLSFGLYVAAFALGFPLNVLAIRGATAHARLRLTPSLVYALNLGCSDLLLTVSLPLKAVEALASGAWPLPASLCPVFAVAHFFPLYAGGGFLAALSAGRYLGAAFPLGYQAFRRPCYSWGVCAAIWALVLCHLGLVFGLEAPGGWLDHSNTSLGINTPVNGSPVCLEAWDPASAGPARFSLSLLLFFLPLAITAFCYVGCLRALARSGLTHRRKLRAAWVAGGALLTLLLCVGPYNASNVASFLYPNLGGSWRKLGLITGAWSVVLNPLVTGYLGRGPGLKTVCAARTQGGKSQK

Compound	EC50 [nM]
COc1cc(C2CC(COc3cccc([C@H](C4CC4)[C@H](C)C(=O)O)c3)C2)ccn1 (single isomer, unassigned) [Example 88]	930
C[C@H](C(=O)O)[C@H](c1cccc(OCC2CC(Oc3ccn[nH]3)C2)c1)C1CC1 (single isomer, unassigned) [Example 98]	1480
C[C@H](C(=O)O)[C@H](c1cccc(OCC2CC(Oc3ccn[nH]3)C2)c1)C1CC1 (single isomer, unassigned) [Example 99]	2670
COc1ccnc(OC2CC(COc3cccc([C@H](C4CC4)[C@H](C)C(=O)O)c3)C2)c1 (single isomer, unassigned) [Example 104]	564
C[C@H](C(=O)O)[C@H](c1cccc(OCC2CC(Oc3ccc4c(c3)COC4=O)C2)c1)C1CC1 (single isomer, unassigned) [Example 107]	3450
C[C@H](C(=O)O)[C@H](c1cccc(OCC2CC(Oc3ccc4c(c3)COC4=O)C2)c1)C1CC1 (single isomer, unassigned) [Example 108]	1970
C[C@H](C(=O)O)[C@H](c1cccc(OCC2CC(Oc3cccc(-c4ccccc4)c3)C2)c1)C1CC1 (single isomer, unassigned) [Example 120]	975
C[C@H](C(=O)O)[C@H](c1cccc(OCC2CC(Oc3cccc(-c4ccccc4)c3)C2)c1)C1CC1 (single isomer, unassigned) [Example 121]	561
C[C@H](C(=O)O)[C@H](c1cccc(OCC2CC(Oc3cccc(O)c3)C2)c1)C1CC1 (single isomer, unassigned) [Example 122]	597
C[C@H](C(=O)O)[C@H](c1cccc(OCC2CC(Oc3cccc(O)c3)C2)c1)C1CC1 (single isomer, unassigned) [Example 123]	324
CC(C)Oc1ccccc1OC1CC(COc2cccc([C@H](C3CC3)[C@H](C)C(=O)O)c2)C1 (single isomer, unassigned) [Example 127]	182
C[C@H](C(=O)O)[C@H](c1cccc(OCC2CCN(c3cccc(C(F)(F)F)n3)CC2)c1)C1CC1 [Example 37]	177
C[C@H](C(=O)O)[C@H](c1cccc(OCC2CCN(c3cc(C(F)(F)F)ccn3)CC2)c1)C1CC1 [Example 39]	218
C[C@H](C(=O)O)[C@H](c1cccc(OCC2CC2Cc2ccccc2)c1)C1CC1 (stereo partly drawn) [Example 67]	408
C[C@H](C(=O)O)[C@H](c1cccc(OCC2CC2c2ccccc2)c1)C1CC1 (stereo partly drawn) [Example 68]	304
COc1cccc(C2CC2COc2cccc([C@H](C3CC3)[C@H](C)C(=O)O)c2)c1 (stereo partly drawn) [Example 69]	166
COc1cccc(C[C@@H]2C[C@H]2COc2cccc([C@H](C3CC3)[C@H](C)C(=O)O)c2)c1 [Example 71]	187
C[C@H](C(=O)O)[C@H](c1cccc(OCC2CC(c3ccccc3)C2)c1)C1CC1 (stereo partly drawn) [Example 72]	201
COc1cccc(C2CC2COc2cccc([C@H](C3CC3)[C@H](C)C(=O)O)c2)c1 (stereo partly drawn) [Example 82, (2S,3R)-3-cyclopropyl-3-(3-((2-(3-methoxyphenyl)cyclopropyl)methoxy)phenyl)-2-methylpropanoic acid]	172
C[C@H](C(=O)O)[C@H](c1cccc(OCC2CC(Oc3ccccc3)C2)c1)C1CC1 (stereo partly drawn) [Example 92, (2S,3R)-3-cyclopropyl-2-methyl-3-(3-((3-phenoxycyclobutyl)methoxy)phenyl)-propanoic acid]	208

The next compounds have a lower EC50 than those just listed; values first:

EC50 [nM]	Compound
22	COc1cccc(OC2CC(COc3cccc([C@H](C4CC4)[C@H](C)C(=O)O)c3)C2)c1 (single isomer, unassigned) [Example 65]
119	COc1cccc(OC2CC(COc3cccc([C@H](C4CC4)[C@H](C)C(=O)O)c3)C2)c1 (single isomer, unassigned) [Example 66]
12	COc1ccc(F)c(OC2CC(COc3cccc([C@H](C4CC4)[C@H](C)C(=O)O)c3)C2)c1 (single isomer, unassigned) [Example 80]
94	COc1cccc(C2CC2COc2cccc([C@H](C3CC3)[C@H](C)C(=O)O)c2)c1 (single isomer, unassigned) [Example 83]
61	COc1cc(C2CC(COc3cccc([C@H](C4CC4)[C@H](C)C(=O)O)c3)C2)ccn1 (single isomer, unassigned) [Example 89]
56	COc1ccnc(OC2CC(COc3cccc([C@H](C4CC4)[C@H](C)C(=O)O)c3)C2)c1 (single isomer, unassigned) [Example 105]
77	COc1ccc(C)cc1OC1CC(COc2cccc([C@H](C3CC3)[C@H](C)C(=O)O)c2)C1 (single isomer, unassigned) [Example 116]
50	COc1ccc(C)cc1OC1CC(COc2cccc([C@H](C3CC3)[C@H](C)C(=O)O)c2)C1 (single isomer, unassigned) [Example 117]
156	Cc1ccc(F)c(OC2CC(COc3cccc([C@H](C4CC4)[C@H](C)C(=O)O)c3)C2)c1 (single isomer, unassigned) [Example 118]
98	Cc1ccc(F)c(OC2CC(COc3cccc([C@H](C4CC4)[C@H](C)C(=O)O)c3)C2)c1 (single isomer, unassigned) [Example 119]
147	CC(C)Oc1ccccc1OC1CC(COc2cccc([C@H](C3CC3)[C@H](C)C(=O)O)c2)C1 (single isomer, unassigned) [Example 126]
109	COc1cccc(F)c1OC1CC(COc2cccc([C@H](C3CC3)[C@H](C)C(=O)O)c2)C1 (single isomer, unassigned) [Example 129]
139	COc1cccc(F)c1OC1CC(COc2cccc([C@H](C3CC3)[C@H](C)C(=O)O)c2)C1 (single isomer, unassigned) [Example 130]
152	C[C@H](C(=O)O)[C@H](c1cccc(OCC2CC(Oc3ccccc3Cl)C2)c1)C1CC1 (single isomer, unassigned) [Example 133]
85	C[C@H](C(=O)O)[C@H](c1cccc(OCC2CC(Oc3ccccc3Cl)C2)c1)C1CC1 (single isomer, unassigned) [Example 134]
20	CC(c1cc(C(F)(F)F)ccc1C(F)(F)F)N1CCC(COc2cccc([C@H](C3CC3)[C@H](C)C(=O)O)c2)CC1 (stereo partly drawn) [Example 35]

EC50 [nM]	Compound
12	CCC(c1cc(C(F)(F)F)ccc1C(F)(F)F)N1CC(COc2cccc([C@H](C3CC3)[C@H](C)C(=O)O)c2)C1 (stereo partly drawn) [Example 36]
13	C[C@H](C(=O)O)[C@H](c1cccc(OCC2CCN(c3ncccc3C(F)(F)F)CC2)c1)C1CC1 [Example 38]
25	C[C@H](C(=O)O)[C@H](c1cccc(OCC2CCN([C@H](C)c3cc(C(F)(F)F)ccc3C(F)(F)F)C2)c1)C1CC1 (stereo partly drawn) [Example 40]
23	C[C@H](C(=O)O)[C@H](c1cccc(OCC2CCN([C@@H](C)c3cc(C(F)(F)F)ccc3C(F)(F)F)C2)c1)C1CC1 (stereo partly drawn) [Example 41]
60	COc1cccc(OC2CC(COc3cccc([C@H](C4CC4)[C@H](C)C(=O)O)c3)C2)c1 (stereo partly drawn) [Example 64, (2S,3R)-3-Cyclopropyl-3-(3-((3-(3-methoxyphenoxy)cyclobutyl)methoxy)phenyl)-2-methylpropanoic acid]
146	COc1cccc(C[C@H]2C[C@@H]2COc2cccc([C@H](C3CC3)[C@H](C)C(=O)O)c2)c1 [Example 70]
43	COc1ccc(F)c(OC2CC(COc3cccc([C@H](C4CC4)[C@H](C)C(=O)O)c3)C2)c1 (stereo partly drawn) [Example 73]
56	COc1ccc(F)c([C@H]2C[C@@H]2COc2cccc([C@H](C3CC3)[C@H](C)C(=O)O)c2)c1 [Example 74]
34	COc1ccc(F)c([C@@H]2C[C@H]2COc2cccc([C@H](C3CC3)[C@H](C)C(=O)O)c2)c1 [Example 75]
138	COc1cc([C@@H]2C[C@H]2COc2cccc([C@H](C3CC3)[C@H](C)C(=O)O)c2)c(F)cn1 [Example 76]
75	COc1cccc(C2=CCC(COc3cccc([C@H](C4CC4)[C@H](C)C(=O)O)c3)C2)c1 (stereo partly drawn) [Example 78, (2 S,3R)-3-cyclopropyl-3-(3-((3-(3-methoxyphenyl)cyclopent-3-en-1 yl)methoxy)phenyl)-2-methylpropanoic acid]
118	COc1cccc([C@H]2CC[C@@H](COc3cccc([C@H](C4CC4)[C@H](C)C(=O)O)c3)C2)c1 [Example 79, (2S,3R)-3-cyclopropyl-3-(3-(((1R,3 S)-3-(3-methoxyphenyl)cyclopentyl)methoxy)phenyl)-2-methylpropanoic acid]
45	COc1ccc(F)c(OC2CC(COc3cccc([C@H](C4CC4)[C@H](C)C(=O)O)c3)C2)c1 (stereo partly drawn) [Example 81, (2S,3R)-3-cyclopropyl-3-(3-((3-(2-fluoro-5-methoxyphenoxy)cyclobutyl)methoxy)phenyl)-2-methylpropanoic acid]
35	COc1cccc(C2CC(COc3cccc([C@H](C4CC4)[C@H](C)C(=O)O)c3)C2)c1 (stereo partly drawn) [Example 85]
102	COc1cc(C2CC(COc3cccc([C@H](C4CC4)[C@H](C)C(=O)O)c3)C2)ccn1 (stereo partly drawn) [Example 86]
